{"source": "patent US20080038288A1", "about": "“Prevention of damage in hippocampus of fetus/newborn infant due to maternal gestational hypertension” (priority 2006, published 2008)", "key": {"[1]": {"test_system": "E21 day rat embryo hippocampal cells", "assay": "Flow cytometry of hippocampal cell cycle in E21 embryos of L-NAME gestational hypertension rats", "assay_type": "in vivo", "details": "dam given L-NAME 60 mg/kg/day i.p. plus gastric feeding E14-20, mean ± sx", "description": "(§1) Animal groups and administration of medication. Gestational hypertension (GH) was produced in rats using the L-NAME (a type of NOS inhibitor) method of Yallampalli et al. [Yallampalli et al., Am J Obstet Gynecol., 1993, 169:1316-1320]. Forty mature (11-12 weeks old) SD female rats weighing 200-230 g; 10 mature (13-15 weeks old) SD male rats weighing 250-300 g. At a ratio of […], the rats were paired in cages, on the second day the female rats' vaginal secretions were observed (smear technique) and those containing sperm were considered to be at day 0 of pregnancy (E0). […] L-NAME was given by two injections at a total dose of 60 mg/kg/day. Two hours after each injection, the pregnant rats received gastric feeding of distilled water, L-arginine or GLSs. The GLSs were provided by Kindway International Ltd./Holistol International Ltd., license number GANSPSP04040104. The L-arginine was purchased from the Amresco Company.\n(§2) Preparation of histological materials. Some of the pregnant rats were anesthetized at E21 day with an i.p. injection of 1% pentobarbital (35 mg/kg). The embryos were removed from the uterus. […]\nHippocampal tissue separated from E21 day rat embryos was placed in a culture dish and sheared into pieces, 0.01 mol/L phosphate buffered saline (PBS) was added and repeatedly triturated, filtered through a 100-mesh screen, and the single-cell suspension obtained was fixed in 75% alcohol at 4° C. to await testing. Before testing, the extracted cell suspension was centrifuged to remove the supernatant, 100 μL RNase (0.1 mg/L) added, placed at 37° C. for 30 min, after rinsing with normal saline, propidium iodine (PI) stain (0.05 mg/L, 0.03% Triton X-100 0.5 mL) was added, placed at 4° C. protected from light to react for 30 min, then measured. In flow cytometry, a 488 nm laser used Cell Fit software to collect 10,000 cells/specimen cell cycle data was analyzed and one-way ANOVA testing performed for statistical processing."}, "[2]": {"test_system": "hippocampus dentate gyrus proliferating cells", "assay": "BrdU labeling, positive cell counts at hippocampus dentate gyrus of P30 rats born to L-NAME rats", "assay_type": "in vivo, rat", "details": "dam given L-NAME plus gastric feeding E14-20, mean ± sd", "description": "as §1\nPreparation of histological materials. Some of the pregnant rats were anesthetized at E21 day with an i.p. injection of 1% pentobarbital (35 mg/kg). The embryos were removed from the uterus. Some were placed in a freezer dish and the hippocampal tissue was removed from the brains of the embryos, placed in an Eppendorf tube and stored at −80° C. to await testing. The rest of the embryonic brains were fixed in a 4% paraformaldehyde solution. […]"}, "hippocampus microvessels": {"test_system": "hippocampus microvessels", "assay": "Hippocampal microvessel density, vWF immunohistochemical staining, Weidner counting", "assay_type": "in vivo, rat", "details": "dam given L-NAME plus gastric feeding E14-20, mean ± sd", "description": "as §1, §2\nHippocampal microvessel density: The Weidner counting method was used to determine the microvessel standard [Weidner et al., Am J Pathol. […] Under a light microscope (200×), microvessel numbers were counted in five visual fields. […]"}, "[3]": {"test_system": "hippocampus CA1, CA3 and DG neurons", "assay": "Morphometric analysis: hippocampal cell layer thickness and neuron body count, neutral red staining", "assay_type": "in vivo, rat", "details": "P30 rats, mean ± sd", "description": "as §1\nPreparation of histological materials. Some of the pregnant rats were anesthetized at E21 day with an i.p. injection of 1% pentobarbital (35 mg/kg). The embryos were removed from the uterus. Some were placed in a freezer dish and the hippocampal tissue was removed from the brains of the embryos, placed in an Eppendorf tube and stored at −80° C. to await testing. The rest of the embryonic brains were fixed in a 4% paraformaldehyde solution. Another group of pregnant rats went into normal labor, and the young rats were fed and raised until 30 days of […] (P30). Some of the young rats received the preceding pentobarbital anesthesia and their hippocampal tissue was placed in a freezer dish and stored to await testing. The rest of the rats in the P30 group received pentobarbital anesthesia as above, their chests were opened and an aortic cannula inserted through the left ventricle. One group of young rats was first quickly perfused with normal saline and then 4% paraformaldehyde 0.1 mol/L phosphate buffer (PB) (pH 7.4). Then the fixed cerebral corona was continuously frozen and sectioned at a thickness of 15 μm. Sectioning started at the alveus of the hippocampus, one section every 300 μm, and six sections were taken from each brain, for a collection of six sets of sections.\nMorphometric analysis. Various cell layer thicknesses from various areas of the hippocampus were measured and a neuron body count obtained. Under a low-magnification microscope, two visual fields were randomly selected from the CA1, CA3 and DG regions. Under a high-magnification microscope (200×), the cell layer thickness was measured and the number of nucleated neuron bodies counted. The cell layer thicknesses or body numbers are the averages of two visual fields."}}, "note": "Marks after values point to notes of the source that are not given here."}
{"smiles": "N=C(N)NCCC[C@H](N)C(=O)O", "note": "[L-arg, L-arginine]", "values": [{"measurement": "Percentage of hippocampal cells in G1/G0 phase", "setting": "[1]", "value": "82.74 ± 2.75^h %"}, {"measurement": "Percentage of hippocampal cells in G2/M phase", "setting": "[1]", "value": "1.44 ± 0.44^i %"}, {"measurement": "Percentage of hippocampal cells in S phase", "setting": "[1]", "value": "15.34 ± 2.92^g %"}, {"measurement": "BrdU positive cell counts at hippocampus dentate gyrus", "setting": "[2]", "value": "38.00 ± 1.04^c"}, {"measurement": "Microvessel density at the hippocampus, E21", "setting": "hippocampus microvessels; E21 embryos", "value": "39.80 ± 4.79^e"}, {"measurement": "Microvessel density at the hippocampus, P30", "setting": "hippocampus microvessels; P30 rats", "value": "75.25 ± 3.86^f"}, {"measurement": "Hippocampal cell layer thickness CA1", "setting": "[3]; CA1 area", "value": "115.23 ± 9.49^m μm"}, {"measurement": "Neuron body counts CA1", "setting": "[3]; CA1 area", "value": "31.80 ± 1.15^n num"}, {"measurement": "Hippocampal cell layer thickness CA3", "setting": "[3]; CA3 area", "value": "90.64 ± 6.18^o μm"}, {"measurement": "Neuron body counts CA3", "setting": "[3]; CA3 area", "value": "23.00 ± 0.83^p num"}, {"measurement": "Hippocampal cell layer thickness DG", "setting": "[3]; DG area", "value": "64.87 ± 4.42^q μm"}]}
